pEC50: −log10 of the molar value.
Legend:
[1] = target: T1, HIV-1 capsid protein (Human immunodeficiency virus type 1 group M subtype B, UniProt P12493); assay: In vitro polymerization of HIV-1 capsid protein (HTRF, His-CA/GST-CA); format: biochemical, HIV-1 NL4-3
T1 construct: made in house
Excerpt: • 1. MAb Anti GST-Eu cryptate (Cisbio) • 2. MAb Anti 6HIS-XL665 (Cisbio) • 3. His tag HIV-1 capsid protein (hereinafter referred to as His-CA) • 4. GST tag HIV-1 capsid protein (hereinafter referred to as GST-CA) • 5. 384-well unbound surface microplate, white (Corning) • 6. Microplate reader (BMG)
The HIV-1 capsid proteins aggregate spontaneously in high-salt solutions. Capsid protein derived from HIV-1 NL4-3 strains were separately tagged and expressed with 6His tag and GST tag, and purified. His-CA and GST-CA were mixed at high-salt concentrations, and the level of polymerization of capsid proteins was detected using GST antibody labeled with Eu3+-Cryptate (energy donor) and His antibody labeled with XL665 (energy acceptor). […]
His-CA was diluted to […] in a clean tube with protein diluent (50 mM Tris-HCl, pH 8.0, 50 mM NaCl, 0.4 mM MgCl2, 0.05% Triton X-100, 2% glycerol) while MAb Anti 6HIS-XL665 at a final concentration of 260 nM was added; GST-CA was diluted to 20 nM with protein diluent in another clean tube while MAb Anti GST-Eu cryptate at a final concentration of 3.33 nM was added and incubated on ice for half an hour. […] After incubation, the samples were excited with an excitation light at 337 nM, and signal values at 620 nM and 665 nM were collected for detection, wherein Ratio values=(665 nM/620 nM signal)*10000 was calculated according to the signal values. EC50 values for compounds were calculated using Graphpad Prism software based on each concentration of the compounds and the corresponding Ratio values.

[2] = Hygroscopicity of salt crystal forms (DVS, 25° C.); format: physicochemical; conditions: for Hygroscopicity 0.0% RH-95.0% RH / Hygroscopicity 20.0% RH-80.0% RH: DVS, 25° C.; for Crystal form: after DVS
Procedure: The test adopts SMS DVS Advantage, at 25° C., with a humidity range of 0 to 95% and a step of 10%. The judgment standard is that the dM/dT of each gradient mass change is less than 0.002%, TMAX is 360 minutes, and the cycle is two times. • 5. Cation chromatography • Instrument model: DIONEX AQUION ion chromatograph, USA • Detection method: conductivity; separation column: IonPac CS16-CG16 • Eluent: MSA 20Mm • Flow rate: 1.0 ml/min • 6. Anion chromatography • Instrument model: DIONEX INTEGRION HPIC ion chromatograph, USA • Detection method: conductivity; separation column: DionexIonPac™-AS11-HC • Eluent: EGC-500-KOH • Flow rate: 1.5 ml/min
Using Surface Measurement Systems advantage, at 25° C., the humidity starts from 50%, the humidity range is 0% to 95%, the step is 10%. The judgment standard was that the dM/dT of each gradient mass change is less than 0.002%, TMAX360 min, and the cycle was two times. The hygroscopicity of different salt crystal forms of the compound of formula I was investigated respectively.

[3] = Long-term/accelerated stability; conditions: for Purity %: 4° C.; for physical and chemical stability (conclusion): long-term accelerated stability conditions for 6 months
[4] = Stability under influencing factors (high temperature, high humidity, open, 30 days); conditions: for physical and chemical stability (conclusion): 75% RH and 92.5% RH

CC(C)(C#Cc1nc([C@H](Cc2cc(F)cc(F)c2)NC(=O)Cn2nc(C(F)(F)F)c3c2C(F)(F)[C@@H]2C[C@H]32)c(-c2ccc(Cl)c3c(NS(C)(=O)=O)nn(CC(F)(F)F)c23)c2c1CCC2)S(C)(=O)=O (atropisomer, axis not shown; (aR)) [The compound of formula (I), N—((S)-1-((R)-4-(4-chloro-3-(methanesulfonamide)-1-(2,2,2-trifluoroethyl)-1H-indazol-7-yl)-1-(3-methyl-3-(methylsulfonyl)but-1-yn-1-yl)-6,7-dihydro-5H-cyclopenta[c]pyridin-3-yl)-2-(3,5-difluorophenyl)ethyl)-2-((3bS,4aR)-5,5-difluoro-3-(trifluoromethyl)-3b,4,4a,5-tetrahydro-1H-cyclopropa[3,4]cyclopenta[1,2-c]pyrazol-1-yl)acetamide]
pEC50 [1]: 8.05 | Emax [1]: 100% | inhibition effect on the polymerization of HIV-1 capsid proteins ([1]; conclusion in words): significant inhibition effect

CC(C)(C#Cc1nc(C(Cc2cc(F)cc(F)c2)NC(=O)Cn2nc(C(F)(F)F)c3c2C(F)(F)C2CC32)c(-c2ccc(Cl)c3c([N-]S(C)(=O)=O)nn(CC(F)(F)F)c23)c2c1CCC2)S(C)(=O)=O.[Na+] (centres unmarked) [Crystal form III of the sodium salt]
Hygroscopicity 0.0% RH-95.0% RH [2]: 2.04% | Hygroscopicity 20.0% RH-80.0% RH [2]: 0.73% | Crystal form [2]: Unchanged | Purity % ([3]; 1 month): 98.25% | Purity % ([3]; 2 months): 98.26% | Purity % ([3]; 3 months): 98.24% | Purity % ([3]; 6 months): 98.28% | Purity % ([3]; Start): 98.32% | physical and chemical stability (conclusion) [3]: good physical and chemical stability | physical and chemical stability (conclusion) ([4]; 40° C., 60° C.): good physical and chemical stability | Color, properties ([4]; 40° C., 5 days): White solid | Crystal form ([4]; 40° C., 5 days): Unchanged | Purity % ([4]; 40° C., 5 days): 97.98% | Color, properties ([4]; 40° C., 10 days): White solid | Crystal form ([4]; 40° C., 10 days): Unchanged | Purity % ([4]; 40° C., 10 days): 98.10% | Color, properties ([4]; 40° C., 30 days): White solid | Crystal form ([4]; 40° C., 30 days): Unchanged | Purity % ([4]; 40° C., 30 days): 98.06% | Color, properties ([4]; 60° C., 5 days): White solid | Crystal form ([4]; 60° C., 5 days): Unchanged | Purity % ([4]; 60° C., 5 days): 98.05% | Color, properties ([4]; 60° C., 10 days): White solid | Crystal form ([4]; 60° C., 10 days): Unchanged | Purity % ([4]; 60° C., 10 days): 98.08% | Color, properties ([4]; 60° C., 30 days): White solid | Crystal form ([4]; 60° C., 30 days): Unchanged | Purity % ([4]; 60° C., 30 days): 97.99% | Color, properties ([4]; 75% RH, 5 days): White solid | Crystal form ([4]; 75% RH, 5 days): Unchanged | Purity % ([4]; 75% RH, 5 days): 98.08% | Color, properties ([4]; 75% RH, 10 days): White solid | Crystal form ([4]; 75% RH, 10 days): Unchanged | Purity % ([4]; 75% RH, 10 days): 98.10% | Color, properties ([4]; 75% RH, 30 days): White solid | Crystal form ([4]; 75% RH, 30 days): Unchanged | Purity % ([4]; 75% RH, 30 days): 98.00% | Color, properties ([4]; 92.5% RH, 5 days): White solid | Crystal form ([4]; 92.5% RH, 5 days): Unchanged | Purity % ([4]; 92.5% RH, 5 days): 97.94% | Color, properties ([4]; 92.5% RH, 10 days): White solid | Crystal form ([4]; 92.5% RH, 10 days): Unchanged | Purity % ([4]; 92.5% RH, 10 days): 97.94% | Color, properties ([4]; 92.5% RH, 30 days): White solid | Crystal form ([4]; 92.5% RH, 30 days): Unchanged | Purity % ([4]; 92.5% RH, 30 days): 97.89% | Color, properties ([4]; Start, 0 days): White solid | Purity % ([4]; Start, 0 days): 98.23%

CC(C)(C#Cc1nc(C(Cc2cc(F)cc(F)c2)NC(=O)Cn2nc(C(F)(F)F)c3c2C(F)(F)C2CC32)c(-c2ccc(Cl)c3c([N-]S(C)(=O)=O)nn(CC(F)(F)F)c23)c2c1CCC2)S(C)(=O)=O.[K+] (centres unmarked) [Crystal form a of the potassium salt]
Hygroscopicity 0.0% RH-95.0% RH [2]: 8.77% | Hygroscopicity 20.0% RH-80.0% RH [2]: 2.86% | Crystal form [2]: Unchanged | Crystal form ([3]; 40° C., 75% RH): Deliquesce | physical and chemical stability (conclusion) [3]: good physical and chemical stability | physical and chemical stability (conclusion) ([4]; 40° C., 60° C.): good physical and chemical stability | Color, properties ([4]; 40° C., 5 days): White solid | Crystal form ([4]; 40° C., 5 days): Unchanged | Purity % ([4]; 40° C., 5 days): 97.97% | Color, properties ([4]; 40° C., 10 days): White solid | Crystal form ([4]; 40° C., 10 days): Unchanged | Purity % ([4]; 40° C., 10 days): 98.04% | Color, properties ([4]; 40° C., 30 days): White solid | Crystal form ([4]; 40° C., 30 days): Unchanged | Purity % ([4]; 40° C., 30 days): 97.96% | Color, properties ([4]; 60° C., 5 days): White solid | Crystal form ([4]; 60° C., 5 days): Unchanged | Purity % ([4]; 60° C., 5 days): 98.01% | Color, properties ([4]; 60° C., 10 days): White solid | Crystal form ([4]; 60° C., 10 days): Unchanged | Purity % ([4]; 60° C., 10 days): 98.01% | Color, properties ([4]; 60° C., 30 days): White solid | Crystal form ([4]; 60° C., 30 days): Unchanged | Purity % ([4]; 60° C., 30 days): 97.82% | Color, properties ([4]; 75% RH, 5 days): White solid | Crystal form ([4]; 75% RH, 5 days): Unchanged | Purity % ([4]; 75% RH, 5 days): 97.96% | Color, properties ([4]; 75% RH, 10 days): White solid | Crystal form ([4]; 75% RH, 10 days): Unchanged | Purity % ([4]; 75% RH, 10 days): 98.04% | Color, properties ([4]; 75% RH, 30 days): White solid | Crystal form ([4]; 75% RH, 30 days): Unchanged | Purity % ([4]; 75% RH, 30 days): 98.02% | Color, properties ([4]; 92.5% RH, 5 days): White solid | Crystal form ([4]; 92.5% RH, 5 days): Unchanged | Purity % ([4]; 92.5% RH, 5 days): 97.96% | Color, properties ([4]; 92.5% RH, 10 days): White solid | Crystal form ([4]; 92.5% RH, 10 days): Unchanged | Purity % ([4]; 92.5% RH, 10 days): 98.04% | Color, properties ([4]; 92.5% RH, 30 days): White solid | Crystal form ([4]; 92.5% RH, 30 days): Unchanged | Purity % ([4]; 92.5% RH, 30 days): 98.02% | Color, properties ([4]; Start, 0 days): White solid | Purity % ([4]; Start, 0 days): 98.03%
